Consider 23 compounds from US9067934B2, “Bicyclic pyridinones” (Pfizer Inc., priority 2011, dated 2015).

Structures can show the parent of a compound that is named as a salt.

The term IC50 denotes the midpoint of a concentration-inhibition curve.

This experiment deals with production of amyloid beta protein Aβ(1-42) (γ-secretase) in human WT-APP overexpressing CHO cells. The experiment is described as follows: Cell-Based γ-Secretase Assay with ELISA Readout. To be noted: human WT-APP overexpressing CHO cells, ~24 hours at 37° C., Aβ(1-42) ELISA; footnotes: a = geometric mean of >15 determinations, b = single determination, c = geometric mean of 7-15 determinations; read-out: Aβ 42B IC50 (Geometric Mean of 2-6 Determinations). As for the experimental part:
Cell-Based γ-Secretase Assay with ELISA Readout
The ability of compounds to modulate production of amyloid beta protein Aβ(1-42) was determined using human WT-APP overexpressing CHO cells. Cells were plated at 22,000 cells/100 μL well in 96 well tissue culture treated, clear plates (Falcon) in DMEM/F12 based medium and incubated for 24 hours at 37° C. Compounds for testing were diluted in 100% DMSO to achieve an eleven points, half log, dose response for IC50 determinations. Compounds were added in fresh medium to achieve 1% final DMSO. Appropriate vehicle or inhibitor controls were added into control wells individually to obtain minimum or maximum inhibition values, respectively, for the assay signal window before the plates were incubated for ˜24 hours at 37° C. This procedure produces conditioned media in each well which is tested for Aβ(1-42) levels in the ELISA detection step described next. The remaining cell cultures in each well are also tested for cell toxicity as described below.
Coating of ELISA assay plates was initiated by addition of 50 μL/well of an in-house Aβ(1-42) specific antibody at (3 μg/mL) in 0.1 M NaHCO3 (pH 9.0) into black 384-well Maxisorp® plates (Nunc) and incubated overnight at 4° C. The capture antibody was then aspirated from the ELISA assay plates and plates were washed 4×100 μL with Wash Buffer (Dulbecco's PBS, 0.05% Tween 20). 90 μL/well of Blocking Buffer (Dulbecco's PBS, 1.0% BSA (Sigma A7030)) was then added to plates. Ambient temperature incubation was allowed to proceed for a minimum of two hours. Blocking buffer was then removed and 20 μL/well Assay Buffer (Dulbecco's PBS, 1.0% BSA (Sigma A7030), 0.05% Tween 20) was then added. At this point, 40 μL (in duplicate) of experimental conditioned media (described above) were transferred into wells of the blocked ELISA plates containing the capture antibody, followed by overnight incubation at 4° C. Cell toxicity was also measured in the corresponding remaining cells after removal of the conditioned media for the Aβ(1-42) assay by a colorimetric cell proliferation assay (CellTiter 96® AQueous One Solution Cell Proliferation Assay, Promega) according to the manufacturer's instructions.
After overnight incubation of the ELISA assay plates at 4° C., unbound Aβ peptides were removed via (4×100 μL) washes with Wash Buffer. Europium (Eu) labeled (custom labeled, Perkin Elmer) Aβ(1-16) 6e10 Monoclonal Antibody (Covance #SIG-39320) was added, (50 μL/well Eu-6e10 @ 1:10,000, 20 uM EDTA) in Assay Buffer. Incubation at ambient temperature for a minimum of 2 hours was followed by (4×100 μL) washes with Wash Buffer, before 30 μL/well of Delfia Enhancement Solution (Perkin Elmer) was added. Following an one hour ambient temperature incubation, the plates were read on an EnVision plate reader (Perkin Elmer) using standard DELFIA TRF settings. Data analysis including inhibitory IC50 determination was performed using nonlinear regression fit analysis (in-house software) and the appropriate plate mean values for the maximum and minimum inhibition controls.
Take `Cc1cn(-c2ccc3n(c2=O)CCN(CCOc2ccc(F)cc2C2CC2)C3=O)cn1` [Example 21, 2-[2-(2-cyclopropyl-4-fluorophenoxy)ethyl]-7-(4-methyl-1H-imidazol-1-yl)-3,4-dihydro-2H-pyrido[1,2-a]pyrazine-1,6-dione]: the IC50 was found to be 262 nM.
For the compound `Cc1cn(-c2ccc3n(c2=O)CCN(CCOc2ccc(Cl)cc2C(F)(F)F)C3=O)cn1` [Example 22, 2-{2-[4-chloro-2-(trifluoromethyl)phenoxy]ethyl}-7-(4-methyl-1H-imidazol-1-yl)-3,4-dihydro-2H-pyrido[1,2-a]pyrazine-1,6-dione], the IC50 is 103 nM.
The result for `Cc1cn(-c2ccc3n(c2=O)CCN(CCOc2ccc(F)c(Cl)c2Cl)C3=O)cn1` [Example 23, 2-[2-(2,3-dichloro-4-fluorophenoxy)ethyl]-7-(4-methyl-1H-imidazol-1-yl)-3,4-dihydro-2H-pyrido[1,2-a]pyrazine-1,6-dione] reads 173 nM; that for `Cc1cn(-c2ccc3n(c2=O)CCN(CCOc2ccccc2-c2cc(C)ns2)C3=O)cn1` [Example 24, 7-(4-methyl-1H-imidazol-1-yl)-2-{2-[2-(3-methylisothiazol-5-yl)phenoxy]ethyl}-3,4-dihydro-2H-pyrido[1,2-a]pyrazine-1,6-dione], 104 nM; that for `Cc1cn(-c2ccc3n(c2=O)CCN(CCOc2ccccc2C2CCC2)C3=O)cn1` [Example 25, 2-[2-(2-cyclobutylphenoxy)ethyl]-7-(4-methyl-1H-imidazol-1-yl)-3,4-dihydro-2H-pyrido[1,2-a]pyrazine-1,6-dione], 73.2 nM.
The result for `Cc1cn(-c2ccc3n(c2=O)CCN(CCOc2cccc4c2oc2ccccc24)C3=O)cn1` [Example 26, 2-[2-(dibenzo[b,d]furan-4-yloxy)ethyl]-7-(4-methyl-1H-imidazol-1-yl)-3,4-dihydro-2H-pyrido[1,2-a]pyrazine-1,6-dione] reads 95.7 nM; that for `Cc1cn(-c2ccc3n(c2=O)CCN(CCOc2ccc(Cl)c(Cl)c2Cl)C3=O)cn1` [Example 27, 7-(4-methyl-1H-imidazol-1-yl)-2-[2-(2,3,4-trichlorophenoxy)ethyl]-3,4-dihydro-2H-pyrido[1,2-a]pyrazine-1,6-dione], 103 nM.
The value for `Cc1cn(-c2ccc3n(c2=O)CCN(CCCOc2cc(C)c(Cl)c(C)c2)C3=O)cn1` [Example 28, 2-[3-(4-chloro-3,5-dimethylphenoxy)propyl]-7-(4-methyl-1H-imidazol-1-yl)-3,4-dihydro-2H-pyrido[1,2-a]pyrazine-1,6-dione] was 31.9 nM; that for `Cc1cn(-c2ccc3n(c2=O)CCN(CCOc2ccc(C(F)(F)F)cc2C(F)(F)F)C3=O)cn1` [Example 29, 2-{2-[2,4-bis(trifluoromethyl)phenoxy]ethyl}-7-(4-methyl-1H-imidazol-1-yl)-3,4-dihydro-2H-pyrido[1,2-a]pyrazine-1,6-dione] was 154 nM.
As to `Cc1cn(-c2ccc3n(c2=O)CCN(CCOc2cc(Cl)c(Cl)cc2Cl)C3=O)cn1` [Example 30, 7-(4-methyl-1H-imidazol-1-yl)-2-[2-(2,4,5-trichlorophenoxy)ethyl]-3,4-dihydro-2H-pyrido[1,2-a]pyrazine-1,6-dione], the IC50 stood at 132 nM.
The result for `Cc1cn(-c2ccc3n(c2=O)CCN(CCOc2ccc(C(F)(F)F)nc2C(F)(F)F)C3=O)cn1` [Example 31, 2-(2-{[2,6-bis(trifluoromethyl)pyridin-3-yl]oxy}ethyl)-7-(4-methyl-1H-imidazol-1-yl)-3,4-dihydro-2H-pyrido[1,2-a]pyrazine-1,6-dione] reads 96.8 nM.
With `Cc1cn(-c2ccc3n(c2=O)CCN(CCCOc2ccccc2C(C)(C)C)C3=O)cn1` [Example 32, 2-[3-(2-tert-butylphenoxy)propyl]-7-(4-methyl-1H-imidazol-1-yl)-3,4-dihydro-2H-pyrido[1,2-a]pyrazine-1,6-dione, trifluoroacetate salt], the IC50 stood at 143 nM.
The value for `Cc1cn(-c2ccc3n(c2=O)CCN(CCOc2cccc(Cl)c2Cl)C3=O)cn1` [Example 33, 2-[2-(2,3-dichlorophenoxy)ethyl]-7-(4-methyl-1H-imidazol-1-yl)-3,4-dihydro-2H-pyrido[1,2-a]pyrazine-1,6-dione, trifluoroacetate salt] was 194 nM; that for `Cc1cn(-c2ccc3n(c2=O)CCN(CCOc2ccccc2-c2ccccc2)C3=O)cn1` [Example 34, 2-[2-(biphenyl-2-yloxy)ethyl]-7-(4-methyl-1H-imidazol-1-yl)-3,4-dihydro-2H-pyrido[1,2-a]pyrazine-1,6-dione, trifluoroacetate salt] was 262 nM; that for `Cc1cn(-c2ccc3n(c2=O)CCN(CCOc2ccc(F)c(C(F)(F)F)c2Cl)C3=O)cn1` [Example 35, 2-{2-[2-chloro-4-fluoro-3-(trifluoromethyl)phenoxy]ethyl}-7-(4-methyl-1H-imidazol-1-yl)-3,4-dihydro-2H-pyrido[1,2-a]pyrazine-1,6-dione, trifluoroacetate salt] was 133 nM.
The value for `Cc1cn(-c2ccc3n(c2=O)CCN(CCOc2ccccc2-c2csc(C)n2)C3=O)cn1` [Example 36, 7-(4-methyl-1H-imidazol-1-yl)-2-{2-[2-(2-methyl-1,3-thiazol-4-yl)phenoxy]ethyl}-3,4-dihydro-2H-pyrido[1,2-a]pyrazine-1,6-dione, trifluoroacetate salt] was 302 nM; that for `Cc1cn(-c2ccc3n(c2=O)CCN(CCOc2ccccc2-c2sncc2C)C3=O)cn1` [Example 37, 7-(4-methyl-1H-imidazol-1-yl)-2-{2-[2-(4-methylisothiazol-5-yl)phenoxy]ethyl}-3,4-dihydro-2H-pyrido[1,2-a]pyrazine-1,6-dione, trifluoroacetate salt] was 219 nM.
As for `Cc1ccc(OCCN2CCn3c(ccc(-n4cnc(C)c4)c3=O)C2=O)c(-c2cc(C(F)(F)F)on2)c1` [Example 38, 7-(4-methyl-1H-imidazol-1-yl)-2-(2-{4-methyl-2-[5-(trifluoromethyl)isoxazol-3-yl]phenoxy}ethyl)-3,4-dihydro-2H-pyrido[1,2-a]pyrazine-1,6-dione, trifluoroacetate salt], the half-inhibitory concentration (IC50) stood at 293 nM.
The result for `Cc1cn(-c2ccc3n(c2=O)CCN(CCOc2ccccc2-c2cc(C(F)(F)F)on2)C3=O)cn1` [Example 39, 7-(4-methyl-1H-imidazol-1-yl)-2-(2-{2-[5-(trifluoromethyl)isoxazol-3-yl]phenoxy}ethyl)-3,4-dihydro-2H-pyrido[1,2-a]pyrazine-1,6-dione, trifluoroacetate salt] reads 525 nM.
The result for `Cc1cn(-c2ccc3n(c2=O)CCN(CCOc2ccccc2-c2csc(C(F)(F)F)n2)C3=O)cn1` [Example 40, 7-(4-methyl-1H-imidazol-1-yl)-2-(2-{2-[2-(trifluoromethyl)-1,3-thiazol-4-yl]phenoxy}ethyl)-3,4-dihydro-2H-pyrido[1,2-a]pyrazine-1,6-dione] reads 19.6 nM; that for `Cc1cn(-c2ccc3n(c2=O)CCN(CCOc2ccccc2-c2coc(C)n2)C3=O)cn1` [Example 41, 7-(4-methyl-1H-imidazol-1-yl)-2-{2-[2-(2-methyl-1,3-oxazol-4-yl)phenoxy]ethyl}-3,4-dihydro-2H-pyrido[1,2-a]pyrazine-1,6-dione, trifluoroacetate salt], 156 nM; that for `Cc1cn(-c2ccc3n(c2=O)CCN(CCOc2cccc4oc5ccccc5c24)C3=O)cn1` [Example 42, 2-[2-(dibenzo[b,d]furan-1-yloxy)ethyl]-7-(4-methyl-1H-imidazol-1-yl)-3,4-dihydro-2H-pyrido[1,2-a]pyrazine-1,6-dione, trifluoroacetate salt], 5.31 nM.
The result for `Cc1cn(-c2ccc3n(c2=O)CCN(CCOc2ccc(Cl)cc2-c2ccon2)C3=O)cn1` [Example 43, 2-[2-(4-chloro-2-isoxazol-3-ylphenoxy)ethyl]-7-(4-methyl-1H-imidazol-1-yl)-3,4-dihydro-2H-pyrido[1,2-a]pyrazine-1,6-dione, trifluoroacetate salt] reads 283 nM.
